Patent publication US9650616B2, “Methods for increasing grain yield” (University of Florida Research Foundation, Inc., priority 2014, dated 2017)
Numbering of substitutions follows the chain as printed. Several values for one entry are separate records, joined by “and”; a condition that tells them apart may be missing. Identical values can stand only once. Like-named read-outs stand apart in the source and are kept apart here.

What was measured:
[1] = biological target: T1, maize endosperm AGPase variant T142F (Zea mays, UniProt P55241+Q84PF5, T142F); assay: Apparent kinetic constants with 3-PGA, 37° C., T142F; format: biochemical
T1 construct: data of Boehlein et al., 2013
T1 sequence (P55241 46-516 T142F): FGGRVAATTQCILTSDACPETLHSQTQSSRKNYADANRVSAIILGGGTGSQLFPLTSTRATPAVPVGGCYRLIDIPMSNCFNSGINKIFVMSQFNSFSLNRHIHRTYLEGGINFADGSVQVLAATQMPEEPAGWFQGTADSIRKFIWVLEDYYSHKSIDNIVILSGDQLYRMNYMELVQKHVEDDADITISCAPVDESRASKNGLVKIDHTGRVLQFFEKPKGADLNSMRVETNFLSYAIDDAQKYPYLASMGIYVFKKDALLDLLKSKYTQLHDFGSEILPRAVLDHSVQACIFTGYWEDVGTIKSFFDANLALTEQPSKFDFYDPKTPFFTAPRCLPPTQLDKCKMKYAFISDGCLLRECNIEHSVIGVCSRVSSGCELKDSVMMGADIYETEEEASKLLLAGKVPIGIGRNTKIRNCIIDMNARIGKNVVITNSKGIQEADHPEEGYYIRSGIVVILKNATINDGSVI
T1 sequence (Q84PF5 1-474): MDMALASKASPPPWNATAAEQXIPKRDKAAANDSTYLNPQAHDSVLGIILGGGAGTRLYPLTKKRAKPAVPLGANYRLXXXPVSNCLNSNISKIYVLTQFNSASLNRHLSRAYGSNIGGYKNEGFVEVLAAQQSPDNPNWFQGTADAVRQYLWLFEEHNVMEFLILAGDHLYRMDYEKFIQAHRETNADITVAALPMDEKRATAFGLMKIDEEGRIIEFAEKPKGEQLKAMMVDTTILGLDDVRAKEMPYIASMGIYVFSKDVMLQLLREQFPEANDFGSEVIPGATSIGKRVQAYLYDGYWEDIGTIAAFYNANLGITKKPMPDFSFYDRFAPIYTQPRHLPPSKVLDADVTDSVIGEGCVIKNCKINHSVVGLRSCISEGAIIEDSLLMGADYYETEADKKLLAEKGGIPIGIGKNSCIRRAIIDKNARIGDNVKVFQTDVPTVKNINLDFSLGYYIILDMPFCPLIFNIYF
Protocol: (§1) An endpoint assay was used to determine the rate of the AGPase reaction by coupling the formation of PPi to a decrease in NADH concentration (Boehlein et al., 2008). […] The Michaelis constants (Km) were obtained by varying one substrate in the presence of saturating concentrations of the second substrate. The activation constants were obtained by varying the activator at fixed levels of both substrates. All reactions were performed at 37° C. and mixes were prewarmed before starting the reaction with enzyme. […] The absorbance at 340 nm was monitored after 30 min and the amount of PPi produced was determined from a standard curve using PPi in complete reaction mixtures lacking AGPase. Blank samples contained complete reaction mixtures without enzyme and the change in absorbance between the blank and the reaction was used to calculate the amount of PPi produced. […]
(§2) The apparent Michaelis constant and maximum velocity of each reaction was calculated from a V vs. S plots using nonlinear regression analysis and the following equation, v=VmaxS/(Km+S), where v is the measured velocity, Vmax is the maximum velocity, S is the substrate concentration. […]
(§3) Each mutant, comprising 1, 2, 3 or 4 changes, was grown in a large scale culture, expressed and purified according to standard procedures (Boehlein et al., 2005). […] Next, the activation constant, Ka, was determined for each of the mutant enzymes. […]

[2] = tested on: maize endosperm AGPase, heat stable ISM mutants; assay: Apparent kinetic constants with 3-PGA, 37° C., ISM mutants collectively; format: biochemical, Zea mays
Protocol: An endpoint assay was used to determine the rate of the AGPase reaction by coupling the formation of PPi to a decrease in NADH concentration (Boehlein et al., 2008). […] The Michaelis constants (Km) were obtained by varying one substrate in the presence of saturating concentrations of the second substrate. The activation constants were obtained by varying the activator at fixed levels of both substrates. All reactions were performed at 37° C. and mixes were prewarmed before starting the reaction with enzyme. Reactions were terminated by boiling the reaction mixes for 2 minutes followed by development with 200 μl of coupling reagent (25 mM imidazole pH 7.4, 4 mM MgCl2, 1 mM EDTA, 0.2 mM NADH, 0.725 U aldolase, 0.4 U triose phosphate isomerase, 0.6 U glycerophosphate dehydrogenase, 1 mM fructose 6-phosphate and 0.8 μg purified PPi-PFK per reaction). The absorbance at 340 nm was monitored after 30 min and the amount of PPi produced was determined from a standard curve using PPi in complete reaction mixtures lacking AGPase. Blank samples contained complete reaction mixtures without enzyme and the change in absorbance between the blank and the reaction was used to calculate the amount of PPi produced. Reactions were linear with time and enzyme concentration.
The apparent Michaelis constant and maximum velocity of each reaction was calculated from a V vs. S plots using nonlinear regression analysis and the following equation, v=VmaxS/(Km+S), where v is the measured velocity, Vmax is the maximum velocity, S is the substrate concentration. The activation constant (Ka) was obtained using the following equation: V=Vmin+Vmax*(X)/(Ka+X), where Vmin is the velocity in the absence of activator and Vmax is the change in activity from Vmin to the total velocity. X is the activator concentration, Ka is the activation constant. All linear regression was carried out using the software program Prism (Graph Pad, San Diego Calif.).
Each mutant, comprising 1, 2, 3 or 4 changes, was grown in a large scale culture, expressed and purified according to standard procedures (Boehlein et al., 2005). […] Thus, the effects of these mutations on the kinetic constants are minimal. Next, the activation constant, Ka, was determined for each of the mutant enzymes. Here a decrease in the Ka for each of the mutants of approximately 3-6 fold was observed. This property appears to stem from the D161G change, and includes all enzymes which carry this mutation (Table 8). To be certain the effect is the result of the D161G mutation, and not the result of other single mutant changes, Q96R and Q96G were purified and characterized.

[3] = biological target: T2, maize endosperm AGPase, evolutionary mutant SH2-E (Zea mays, UniProt P55241+Q84PF5); assay: Apparent kinetic constants with 3-PGA, 37° C., SH2-E; format: biochemical; conditions: read-out: G-1-P Km
T2 construct: data of Boehlein et al., 2013
T2 sequence (P55241 46-516, change not shown, one chain of several): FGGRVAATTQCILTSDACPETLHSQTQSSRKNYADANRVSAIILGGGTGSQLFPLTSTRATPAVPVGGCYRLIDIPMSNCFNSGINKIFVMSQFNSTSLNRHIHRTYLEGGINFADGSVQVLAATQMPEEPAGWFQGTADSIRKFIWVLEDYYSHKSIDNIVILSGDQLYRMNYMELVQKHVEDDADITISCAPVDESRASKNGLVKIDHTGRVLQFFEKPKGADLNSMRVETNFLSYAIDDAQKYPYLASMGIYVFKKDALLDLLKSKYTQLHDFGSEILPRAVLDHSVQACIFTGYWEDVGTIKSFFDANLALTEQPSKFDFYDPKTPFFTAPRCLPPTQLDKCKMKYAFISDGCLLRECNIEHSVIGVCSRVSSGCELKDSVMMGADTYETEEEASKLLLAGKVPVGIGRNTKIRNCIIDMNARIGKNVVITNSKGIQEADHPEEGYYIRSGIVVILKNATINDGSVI
Protocol: as §1, §2, §3

[4] = tested on: maize endosperm AGPase, wild type (Maize-wt); conditions: read-out: G-1-P Km, absence of 3-PGA; cited from earlier work
[5] = tested on: maize endosperm AGPase, wild type; conditions: cited from earlier work
[6] = tested on: maize endosperm AGPase, wild type; conditions: cited from earlier work; remark: listed apart in the source
[7] = biological target: T1, maize endosperm AGPase variant T142F; conditions: read-out: G-1-P Km, absence of 3-PGA; cited from earlier work
[8] = biological target: T2, maize endosperm AGPase, evolutionary mutant SH2-E; conditions: read-out: G-1-P Km, absence of 3-PGA; cited from earlier work
[9] = tested on: maize endosperm AGPase, evolutionary mutant SH2-E (SH2E); conditions: cited from earlier work; for Ki: read-out: Ki (Pi)
[10] = tested on: maize endosperm AGPase, evolutionary mutant SH2-E (SH2E); conditions: cited from earlier work; for Ki: presence of 3-PGA, NC, read-out: Ki (Pi)
[11] = biological target: T3, maize endosperm AGPase, large subunit variant GGR (Q96G, D161G, A443R; numbering of SEQ ID NO: 20) (Zea mays, UniProt P55241+Q84PF5, A443R/D161G/Q96G); assay: Pi inhibition in the absence of 3-PGA, GGR; format: biochemical
T3 sequence (P55241 46-516 A443R/D161G/Q96G): T1 sequence (P55241 46-516 T142F) with Q51G, F97T, D116G, A398R
T3 sequence (Q84PF5 1-474): T1 sequence (Q84PF5 1-474)
Protocol: Next, the kinetics of the GGR mutant were further investigated by following Pi inhibition in the presence and absence of 3-PGA. Experiments were performed by keeping both substrates constant and non-saturating at several fixed concentrations of Pi.
A similar examination of the Pi inhibition was then followed with GGR in the absence of 3-PGA.

[12] = biological target: T3, maize endosperm AGPase, large subunit variant GGR (Q96G, D161G, A443R; numbering of SEQ ID NO: 20); assay: Pi inhibition in the presence of 3-PGA, GGR; format: biochemical
Excerpt: Inhibition by Pi was then followed in the presence of the activator 3-PGA.

[13] = Maize wt, absence of 3-PGA, varied substrate ATP
[14] = Maize wt, absence of 3-PGA, varied substrate G-1-P
[15] = Maize wt, presence of 3-PGA, varied substrate ATP
[16] = Maize wt, presence of 3-PGA, varied substrate G-1-P
[17] = absence of 3-PGA, varied substrate G-1-P

O=C(O)[C@H](O)COP(=O)(O)O [3-PGA]
Ka for 3-PGA [1]: decreased Ka
affinity for the activator, 3-PGA ([2]; heat stable mutant): increased affinity
decrease in the Ka for 3-PGA ([2]; mutants carrying D161G versus wt maize): 3-6 fold

O=P(O)(O)O[C@H]1O[C@H](CO)[C@@H](O)[C@H](O)[C@H]1O [G-1-P, glucose-1-phosphate]
Km [3]: 30 µM
largest variation in Km ([2]; mutants versus wt maize, in the presence of 3-PGA): approximately two-fold
Km [4]: 2800 µM
Km ([5]; read-out: Km (G-1-P), Maize wt, absence of 3-PGA, G-1-P varied, Pi inhibition, P-MT): 22200 µM
Km ([5]; wt maize AGPase, absence of activator, Pi inhibition assay, read-out: Km for both substrates): > 20000 µM
Km ([6]; read-out: Km (G-1-P), Maize wt, presence of 3-PGA, G-1-P varied, Pi inhibition, P-MT): 91 µM
Km [7]: 90 µM
Km [8]: 30 µM
Km ([9]; read-out: Km (G-1-P), absence of 3-PGA, G-1-P varied, Pi inhibition): 200 µM
Km ([10]; read-out: Km (G-1-P), presence of 3-PGA, G-1-P varied, Pi inhibition, NC): 63 µM

O=P(O)(O)O [Pi, phosphate]
Ki for Pi relative to normal concentration of Pi in maize endosperm (~6.5 mM) [11]: 10-20 times
Ki ([11]; read-out: Ki for Pi with respect to both substrates): 50 to 100 mM
Ki ([11]; varied substrate G-1-P, read-out: Ki (Pi)): 52.7 mM
Ki ([12]; in the presence of 3-PGA, read-out: Ki for Pi): 10 to 20 mM
α (Pi interaction factor) ([12]; presence of 3-PGA, varied substrate ATP): 2.5 and 2.5 +/− 0.66
Ki ([12]; presence of 3-PGA, varied substrate ATP, L-MT, read-out: Ki (Pi)): 10.7 mM
Ki ([12]; presence of 3-PGA, varied substrate G-1-P, NC, read-out: Ki (Pi)): 20.7 mM
Ki ([5]; Maize wt, absence of 3-PGA, varied substrate ATP, P-MT, read-out: Ki (Pi)): 3.4 mM
α (Pi interaction factor) [5, 13]: 0.063 +/− 0.034
β (partiality of Pi inhibition) [5, 13]: 0.52 +/− 0.17
Ki ([5]; Maize wt, absence of 3-PGA, varied substrate G-1-P, P-MT, read-out: Ki (Pi)): 5.1 mM
α (Pi interaction factor) [5, 14]: 0.095 +/− 0.065
β (partiality of Pi inhibition) [5, 14]: 0.92 +/− 0.31
Ki ([5]; wt maize AGPase, absence of activator, read-out: Ki for Pi): 3 to 5 mM
Ki ([6]; Maize wt, presence of 3-PGA, varied substrate ATP, P-MT, read-out: Ki (Pi)): 0.37 mM
α (Pi interaction factor) [6, 15]: 4.61 +/− 0.70
β (partiality of Pi inhibition) [6, 15]: 0.83 +/− 0.037
Ki ([6]; Maize wt, presence of 3-PGA, varied substrate G-1-P, P-MT, read-out: Ki (Pi)): 1 mM
α (Pi interaction factor) [6, 16]: 0.90 +/− 0.012
β (partiality of Pi inhibition) [6, 16]: 0.52 +/− 0.023
Ki ([6]; wt AGPase, in the presence of 3-PGA, read-out: Ki for Pi): 0.5 to 1 mM
Ki ([9]; absence of 3-PGA, varied substrate ATP, NC): 20.9 mM
Ki [9, 17]: 0.055 mM
α (Pi interaction factor) [9, 17]: 0.85 +/− 0.17
β (partiality of Pi inhibition) [9, 17]: 0.44 +/− 0.03
Ki ([10]; varied substrate ATP): 7.8 mM
Ki ([10]; varied substrate G-1-P): 6.62 mM
